Key:
[1] = tested on: Interleukin-2 (IL-2) production/release in Jurkat T cells; experiment: Jurkat IL-2 Production Assay (PHA-stimulated, IL-2 AlphaLisa); assay type: cell-based; conditions: Homo sapiens, PHA 15 μg/ml, 22 h, inhibition of IL-2 production
Experimental: The effect of compounds of the invention on Interleukin-2 (IL-2) production/release was tested in the Jurkat T cell line (ECACC) clone E6-1.
Jurkat T cells were cultured in DMEM/F12/Glutamax (Gibco) containing 10% FCS (Gibco), and maintained at 37° C., 5% CO2. Cells were split twice a week [5*10^6 (Mon-Thu) and 1*10^7 (Thu-Mon) cells/50 ml medium in 1-175 ZK culture flasks, respectively].
Prior to experiment, cells were seeded on 96 well plates (Cellstar 96 Well; Cat No. 655180, Greiner bio-one) at a density of 5*10^5 cells/well in DMEM/F12/Glutamax (Gibco) containing 10% FCS (Gibco), and incubated for 60 min at 37° C., 5% CO2. Subsequently, compounds were added and cells were allowed to incubate for 30 min at 37° C., 5% CO2. Cells were then stimulated with 15 μg/ml Phyto-hemagglutinin (PHA; Sigma) for 22 hours at 37° C., 5% CO2.
Before sampling of the supernatants, cells were spun down (200*g/5 min/RT). The amount of IL-2 released into the supernatant was quantified with the human IL-2 AlphaLisa kit (Perkin Elmer) according to manufacturer's instructions. Luminescence proximity measurements were carried out in the Synergy H4 reader (BioTek) employing the fluorescence setting of the reader (ex: 680/30 nm; em: 620/40 nm).
Inhibition of IL-2 production/release in/from Jurkat T cells was quantified as follows: Zero percent inhibition (MAX) was defined as the [IL-2] determined in supernatants derived from cells to which PHA & DMSO-only had been added instead of compound. Hundred percent inhibition (MIN) was defined as the [IL-2] determined in supernatants derived from cells that had been pre-treated with 1 μM CyclosporineA (Sigma) before the addition of 15 μg/ml PHA.
For routine IC50 determinations of compounds, 8 concentrations of a serial dilution (1:3.16) were tested, starting off from 10 μM.

CRAC channel = target: T1, CRAC channel (Homo sapiens, UniProt Q96D31); experiment: HEK Calcium Influx Assay (FLIPR), inhibition of store-operated Ca2+ entry after thapsigargin store depletion; assay type: cell-based; conditions: 10 μM compound, HEK293 cells, read-out: % inhib. [@ 10 μM] FLIPR
T1 construct: endogenous in cells; host or cells: HEK293 (ECACC), untransfected
T1 sequence (Q96D31 whole entry): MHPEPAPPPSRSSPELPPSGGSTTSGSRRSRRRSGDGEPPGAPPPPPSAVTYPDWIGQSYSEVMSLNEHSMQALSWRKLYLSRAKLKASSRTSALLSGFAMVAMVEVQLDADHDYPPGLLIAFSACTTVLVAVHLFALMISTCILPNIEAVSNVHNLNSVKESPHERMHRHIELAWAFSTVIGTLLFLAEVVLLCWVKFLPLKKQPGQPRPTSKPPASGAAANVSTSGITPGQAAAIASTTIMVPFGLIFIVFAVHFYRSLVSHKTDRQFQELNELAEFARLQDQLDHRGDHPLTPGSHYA
Experimental: The effect of compounds of the invention on intracellular [Ca^2+] was tested in the HEK293 cell line (ECACC).
HEK293 cells were cultured in DMEM/F12/Glutamax (Gibco) containing 10% FCS (Gibco), and maintained at 37° C., 5% CO2. Cell were split twice a week [3*10^6 (Mon-Thu) and 1*10^6 (Thu-Mon) cells/50 ml medium in 1-175 ZK culture flasks, respectively]. Twenty four hours pre-experiment, cells were seeded on 96 well plates (Poly-D-Lysine 96 well Black/Clear Plate, BD Biocoat REF 356640) at a density of 40,000 cells/well in DMEM/F12 (Gibco) containing 10% FCS (Gibco), and maintained at 37° C., 5% CO2.
Prior to store-depletion, cell culture medium was removed and cells were loaded with the Calcium-sensitive fluorescent dye comprised within the Calcium-4-assay kit (Molecular Devices) in nominally Ca^2+-free HBS buffer (140 mM NaCl, 4 mM KCl, 0.2 mM MgCl2, 11 mM D-glucose, and 10 mM HEPES, pH 7.4) according to manufacturer's instruction for 60 min at 37° C., 5% CO2.
Passive depletion of intracellular Ca^2+-stores was then triggered by employing the SERCA inhibitor thapsigargin (2 μM final) for 10 min in the dark (RT). To prevent immediate Ca^2+-entry via the activated store-operated channels (SOCs), cells were maintained in Ca^2+-free HBS buffer comprising 100 μM EGTA during store-depletion.
Intracellular changes in [Ca^2+] were subsequently monitored with the FLIPR device (Molecular Devices). In brief, baseline imaging post-store depletion was allowed for 1 min before adjusting the extracellular buffer to 3 mM CaCl2. Increases in intracellular [Ca^2+] due to pre-activated SOC channels were monitored for 15 min until intracellular Ca^2+ levels had declined into a steady-state. Finally, compounds were administered, and Ca^2+ signals were recorded for additional 10 min.
Inhibition of endogenous SOC in HEK293 cells was quantified employing the average Ca^2+ signal measured from 9.5-10 min post-administration. Zero percent inhibition (MAX) was defined as the Ca^2+ signal recorded from wells to which DMSO-only had been added instead of compound. Hundred percent inhibition (MIN) was defined as the signal obtained from wells in which cells haven't been treated with TG prior to Ca^2+ addition and to which DMSO-only had been added instead of compound. For routine IC50 determinations of compounds, 8 concentrations of a serial dilution (1:3.16) were tested, starting off from 10 μM. Reliable IC50's could consequently be determined only, if they were at least sub 2.5-3 μM.

COC(=O)c1ccc(N2CCc3[nH]c(-c4c(F)cccc4F)cc3C2)c(C)c1 [Example 13, 4-[2-(2,6-Difluoro-phenyl)-4,5,6,7-tetrahydro-1H-pyrrolo[3,2-c]pyridin-5-yl]-3-methyl-benzoic acid methyl ester] was tested, and the IC50 [1] was 0.5 to 1 µM and the inhibition at 10 µM (CRAC channel) was < 50%.
With Cc1cc(Cl)c(F)cc1N1CCc2[nH]c(-c3c(F)cccc3F)cc2C1 [Example 71, 5-(4-Chloro-5-fluoro-2-methyl-phenyl)-2-(2,6-difluoro-phenyl)-4,5,6,7-tetrahydro-1H-pyrrolo[3,2-c]pyridine] the IC50 [1] was 1 to 5 µM and the inhibition at 10 µM (CRAC channel) was < 50%.
In the case of CCOc1cc(C(F)(F)F)c(N2CCc3[nH]c(-c4c(F)cccc4F)cc3C2)cn1 [Example 100, 2-(2,6-Difluoro-phenyl)-5-[6-ethoxy-4-(trifluoromethyl)-pyridin-3-yl]-4,5,6,7-tetrahydro-1H-pyrrolo[3,2-c]pyridine], the IC50 [1] is reported as 1 to 5 µM and the inhibition at 10 µM (CRAC channel) is reported as < 50%.
Cc1cc(S(=O)(=O)C(F)(F)F)ccc1N1CCc2[nH]c(-c3c(F)cccc3F)cc2C1 [Example 86, 2-(2,6-Difluoro-phenyl)-5-[2-methyl-4-(trifluoromethylsulfonyl)-phenyl]-4,5,6,7-tetrahydro-1H-pyrrolo[3,2-c]pyridine] was tested, and the IC50 [1] was 1 to 5 µM and the inhibition at 10 µM (CRAC channel) was < 50%.
With Cc1ccc(-c2nccs2)cc1N1CCc2[nH]c(-c3c(F)cccc3F)cc2C1 [Example 8, 2-[3-[2-(2,6-Difluoro-phenyl)-4,5,6,7-tetrahydro-1H-pyrrolo[3,2-c]pyridin-5-yl]-4-methyl-phenyl]-thiazole] the IC50 [1] was < 0.5 µM and the inhibition at 10 µM (CRAC channel) was > 70%.
With Cc1cc(S(C)(=O)=O)ccc1N1CCc2[nH]c(-c3c(F)cccc3F)cc2C1 [Example 88, 2-(2,6-Difluoro-phenyl)-5-(2-methyl-4-methylsulfonyl-phenyl)-4,5,6,7-tetrahydro-1H-pyrrolo[3,2-c]pyridine] the IC50 [1] was < 0.5 µM and the inhibition at 10 µM (CRAC channel) was 50 to 70%.
In the case of Cc1nc(C#N)ccc1N1CCc2[nH]c(-c3c(F)cccc3F)cc2C1 [Example 77, 5-[2-(2,6-Difluoro-phenyl)-4,5,6,7-tetrahydro-1H-pyrrolo[3,2-c]pyridin-5-yl]-6-methyl-pyridine-2-carbonitrile], the IC50 [1] is reported as 1 to 5 µM and the inhibition at 10 µM (CRAC channel) is reported as > 70%.
For Cc1ccncc1N1CCc2[nH]c(-c3c(F)cccc3F)cc2C1 [Example 10, 2-(2,6-Difluoro-phenyl)-5-(4-methyl-pyridin-3-yl)-4,5,6,7-tetrahydro-1H-pyrrolo[3,2-c]pyridine], the IC50 [1] was 1 to 5 µM and the inhibition at 10 µM (CRAC channel) was > 70%.
With Cc1cc(CS(C)(=O)=O)ncc1N1CCc2[nH]c(-c3c(F)cccc3F)cc2C1 [Example 104, 2-(2,6-Difluoro-phenyl)-5-[4-methyl-6-(methylsulfonyl-methyl)-pyridin-3-yl]-4,5,6,7-tetrahydro-1H-pyrrolo[3,2-c]pyridine] the IC50 [1] was 1 to 5 µM and the inhibition at 10 µM (CRAC channel) was > 70%.
With Cc1cc(Cl)ncc1N1CCc2[nH]c(-c3c(F)cccc3F)cc2C1 [Example 4, 5-(6-Chloro-4-methyl-pyridin-3-yl)-2-(2,6-difluoro-phenyl)-4,5,6,7-tetrahydro-1H-pyrrolo[3,2-c]pyridine] the IC50 [1] was < 0.5 µM and the inhibition at 10 µM (CRAC channel) was > 70%.
Cn1nc(C2CC2)cc1N1CCc2[nH]c(-c3c(F)cccc3F)cc2C1 [Example 106, 5-(5-Cyclopropyl-2-methyl-2H-pyrazol-3-yl)-2-(2,6-difluoro-phenyl)-4,5,6,7-tetrahydro-1H-pyrrolo[3,2-c]pyridine] was tested, and the IC50 [1] was 0.5 to 1 µM and the inhibition at 10 µM (CRAC channel) was > 70%.
With COCc1ccc(N2CCc3[nH]c(-c4c(F)cccc4F)cc3C2)c(C)c1 [Example 105, 2-(2,6-Difluoro-phenyl)-5-[4-(methoxymethyl)-2-methyl-phenyl]-4,5,6,7-tetrahydro-1H-pyrrolo[3,2-c]pyridine] the IC50 [1] was 0.5 to 1 µM and the inhibition at 10 µM (CRAC channel) was > 70%.
With Cc1cc(S(=O)(=O)N2CCCC2)ccc1N1CCc2[nH]c(-c3c(F)cccc3F)cc2C1 [Example 121, 2-(2,6-Difluoro-phenyl)-5-[2-methyl-4-(pyrrolidin-1-ylsulfonyl)-phenyl]-4,5,6,7-tetrahydro-1H-pyrrolo[3,2-c]pyridine] the IC50 [1] was 1 to 5 µM and the inhibition at 10 µM (CRAC channel) was > 70%.
Cc1cc(S(C)(=O)=O)ncc1N1CCc2[nH]c(-c3ccncc3Cl)cc2C1 [Example 108, 2-(3-Chloro-pyridin-4-yl)-5-(4-methyl-6-methylsulfonyl-pyridin-3-yl)-4,5,6,7-tetrahydro-1H-pyrrolo[3,2-c]pyridine] was tested, and the IC50 [1] was 0.5 to 1 µM and the inhibition at 10 µM (CRAC channel) was < 50%.
CCn1nc(C(F)(F)F)cc1N1CCc2[nH]c(-c3c(F)cccc3F)cc2C1 [Example 130, 2-(2,6-Difluoro-phenyl)-5-[2-ethyl-5-(trifluoromethyl)-2H-pyrazol-3-yl]-4,5,6,7-tetrahydro-1H-pyrrolo[3,2-c]pyridine] was tested, and the IC50 [1] was < 0.5 µM and the inhibition at 10 µM (CRAC channel) was > 70%.
For Cc1cc(S(C)(=O)=O)ncc1N1CCc2[nH]c(-c3ccncc3F)cc2C1 [Example 90, 2-(3-Fluoro-pyridin-4-yl)-5-(4-methyl-6-methylsulfonyl-pyridin-3-yl)-4,5,6,7-tetrahydro-1H-pyrrolo[3,2-c]pyridine], the IC50 [1] was 1 to 5 µM and the inhibition at 10 µM (CRAC channel) was > 70%.
In the case of CCc1sc(-c2cccnc2)nc1N1CCc2[nH]c(-c3c(F)cccc3F)cc2C1 [Example 31, 4-[2-(2,6-Difluoro-phenyl)-4,5,6,7-tetrahydro-1H-pyrrolo[3,2-c]pyridin-5-yl]-5-ethyl-2-pyridin-3-yl-thiazole], the IC50 [1] is reported as < 0.5 µM and the inhibition at 10 µM (CRAC channel) is reported as < 50%.
In the case of Cc1cc(S(=O)(=O)NCC(F)(F)F)ccc1N1CCc2[nH]c(-c3c(F)cccc3F)cc2C1 [Example 136, 4-[2-(2,6-Difluoro-phenyl)-4,5,6,7-tetrahydro-1H-pyrrolo[3,2-c]pyridin-5-yl]-3-methyl-N-(2,2,2-trifluoro-ethyl)-benzenesulfonic acid amide], the IC50 [1] is reported as 1 to 5 µM and the inhibition at 10 µM (CRAC channel) is reported as < 50%.
Cc1cc(N(C)S(C)(=O)=O)ccc1N1CCc2[nH]c(-c3c(F)cccc3F)cc2C1 [Example 132, N-[4-[2-(2,6-Difluoro-phenyl)-4,5,6,7-tetrahydro-1H-pyrrolo[3,2-c]pyridin-5-yl]-3-methyl-phenyl]-N-methyl-methanesulfonic acid amide] was tested, and the IC50 [1] was 1 to 5 µM and the inhibition at 10 µM (CRAC channel) was < 50%.
For Cc1cc(S(C)(=O)=O)ncc1N1CCc2[nH]c(C3CCCOC3)cc2C1 (stereo not drawn) [Example 115, 5-(4-Methyl-6-methylsulfonyl-pyridin-3-yl)-2-tetrahydro-pyran-3-yl-4,5,6,7-tetrahydro-1H-pyrrolo[3,2-c]pyridine], the IC50 [1] was 1 to 5 µM and the inhibition at 10 µM (CRAC channel) was < 50%.
In the case of COc1ccc(OC)c(N2CCc3[nH]c(-c4c(F)cccc4F)cc3C2)c1 [Example 21, 2-(2,6-Difluoro-phenyl)-5-(2,5-dimethoxyphenyl)-4,5,6,7-tetrahydro-1H-pyrrolo[3,2-c]pyridine], the IC50 [1] is reported as 1 to 5 µM and the inhibition at 10 µM (CRAC channel) is reported as > 70%.
